Experimental data published in patent publication US7498336B2, “Deazaflavin compounds and methods of use thereof” (The United States of America as represented by the …, priority 2003, dated 2009).
Square brackets hold non-standard residues; d marks the D form. Peptide text beside a SMILES is read from it. Nle = CCCC[C@H](N)C(=O)O

Legend:
Nedd4 = biological target: T1, Nedd4 (Homo sapiens, UniProt P46934); experiment: In vitro ubiquitination assay (E1+E2+E3) with unrelated E3 ligase; format: biochemical; conditions: gel assay, FIG. 2B, 2C
T1 construct: made in house
T1 sequence (P46934 1-1319): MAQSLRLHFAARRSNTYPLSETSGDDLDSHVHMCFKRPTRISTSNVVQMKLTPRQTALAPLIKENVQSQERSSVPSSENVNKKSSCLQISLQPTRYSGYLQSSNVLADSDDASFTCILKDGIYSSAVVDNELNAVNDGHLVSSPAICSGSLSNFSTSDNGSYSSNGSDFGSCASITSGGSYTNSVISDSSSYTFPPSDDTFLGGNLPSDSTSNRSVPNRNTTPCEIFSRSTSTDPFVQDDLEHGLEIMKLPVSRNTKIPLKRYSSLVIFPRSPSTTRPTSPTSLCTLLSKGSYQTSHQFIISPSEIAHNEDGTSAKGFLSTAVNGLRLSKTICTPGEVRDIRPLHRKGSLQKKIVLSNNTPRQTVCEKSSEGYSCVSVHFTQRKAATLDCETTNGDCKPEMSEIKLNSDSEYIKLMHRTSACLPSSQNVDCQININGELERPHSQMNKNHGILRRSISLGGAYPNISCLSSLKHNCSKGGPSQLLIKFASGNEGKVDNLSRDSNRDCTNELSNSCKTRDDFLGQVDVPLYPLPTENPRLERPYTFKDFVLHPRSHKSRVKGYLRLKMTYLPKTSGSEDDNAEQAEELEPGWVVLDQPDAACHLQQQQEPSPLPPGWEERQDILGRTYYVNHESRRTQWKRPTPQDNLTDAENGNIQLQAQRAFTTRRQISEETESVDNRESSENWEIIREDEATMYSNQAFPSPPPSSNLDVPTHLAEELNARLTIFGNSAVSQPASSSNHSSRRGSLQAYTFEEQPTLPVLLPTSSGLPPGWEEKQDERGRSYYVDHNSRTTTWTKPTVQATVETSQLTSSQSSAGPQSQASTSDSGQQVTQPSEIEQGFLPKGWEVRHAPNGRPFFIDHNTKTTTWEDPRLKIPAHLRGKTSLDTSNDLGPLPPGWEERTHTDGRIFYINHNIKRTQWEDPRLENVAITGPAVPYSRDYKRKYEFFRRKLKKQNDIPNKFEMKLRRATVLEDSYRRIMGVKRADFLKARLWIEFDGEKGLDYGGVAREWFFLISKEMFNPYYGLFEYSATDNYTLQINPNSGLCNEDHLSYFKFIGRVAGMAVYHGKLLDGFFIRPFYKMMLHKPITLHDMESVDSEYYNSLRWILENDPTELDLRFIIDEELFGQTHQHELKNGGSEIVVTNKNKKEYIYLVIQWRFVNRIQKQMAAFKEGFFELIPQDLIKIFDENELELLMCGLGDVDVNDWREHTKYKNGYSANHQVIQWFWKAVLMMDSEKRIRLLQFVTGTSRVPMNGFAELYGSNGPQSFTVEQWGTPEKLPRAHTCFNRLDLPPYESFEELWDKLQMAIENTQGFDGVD
Protocol: (§1) 1 pmole per experimental point of bacterially expressed GST-MDM2 (or GST-Nedd) was coupled to glutathione Sepharose (GS) for 30 minutes at room temperature with tumbling, followed by 3× wash with 50 mM Tris pH 7.5. Following this, 20 μl of 1× buffer was added (40 μl 10× reaction buffer*, 40 μl 10× PCK**, 320 μl dH2O). The test compound in DMSO is then added to the desired concentration with an equal volume of DMSO used as a control. Samples are incubated with shaking for 1 hr at 23° C. To carry out the reaction, a pre-made cocktail of Rabbit E1 (Calbiochem #6620700)/UbcH5B/^32P Ub cocktail (1 μl/0.5 μl/1 μl) is added followed by 15 minutes shaking at 30° C. The reaction is terminated by addition of 8 μl 4× reducing SDS-PAGE loading buffer. After dissociating proteins from the beads at 100° C. for 2 minutes, samples are resolved on 6% PAGE followed by exposure of the dried gel to phosphor screen. Note: ^32P Ub is derived from GST-Ub that has been engineered to include a PKA phosphorylation site. This fusion protein is purified on glutathione Sepharose, phosphorylated, following this, the ^32P Ub ubiquitin is cleaved and purified away from the thrombin.

rabbit E1 = biological target: T2, rabbit E1 (Oryctolagus cuniculus, UniProt Q29504); experiment: E1 only assay (thiol-ester linkage of ubiquitin with E1); format: biochemical; conditions: FIG. 2D
T2 construct: purchased Calbiochem 6620700
T2 sequence (Q29504 1-1058): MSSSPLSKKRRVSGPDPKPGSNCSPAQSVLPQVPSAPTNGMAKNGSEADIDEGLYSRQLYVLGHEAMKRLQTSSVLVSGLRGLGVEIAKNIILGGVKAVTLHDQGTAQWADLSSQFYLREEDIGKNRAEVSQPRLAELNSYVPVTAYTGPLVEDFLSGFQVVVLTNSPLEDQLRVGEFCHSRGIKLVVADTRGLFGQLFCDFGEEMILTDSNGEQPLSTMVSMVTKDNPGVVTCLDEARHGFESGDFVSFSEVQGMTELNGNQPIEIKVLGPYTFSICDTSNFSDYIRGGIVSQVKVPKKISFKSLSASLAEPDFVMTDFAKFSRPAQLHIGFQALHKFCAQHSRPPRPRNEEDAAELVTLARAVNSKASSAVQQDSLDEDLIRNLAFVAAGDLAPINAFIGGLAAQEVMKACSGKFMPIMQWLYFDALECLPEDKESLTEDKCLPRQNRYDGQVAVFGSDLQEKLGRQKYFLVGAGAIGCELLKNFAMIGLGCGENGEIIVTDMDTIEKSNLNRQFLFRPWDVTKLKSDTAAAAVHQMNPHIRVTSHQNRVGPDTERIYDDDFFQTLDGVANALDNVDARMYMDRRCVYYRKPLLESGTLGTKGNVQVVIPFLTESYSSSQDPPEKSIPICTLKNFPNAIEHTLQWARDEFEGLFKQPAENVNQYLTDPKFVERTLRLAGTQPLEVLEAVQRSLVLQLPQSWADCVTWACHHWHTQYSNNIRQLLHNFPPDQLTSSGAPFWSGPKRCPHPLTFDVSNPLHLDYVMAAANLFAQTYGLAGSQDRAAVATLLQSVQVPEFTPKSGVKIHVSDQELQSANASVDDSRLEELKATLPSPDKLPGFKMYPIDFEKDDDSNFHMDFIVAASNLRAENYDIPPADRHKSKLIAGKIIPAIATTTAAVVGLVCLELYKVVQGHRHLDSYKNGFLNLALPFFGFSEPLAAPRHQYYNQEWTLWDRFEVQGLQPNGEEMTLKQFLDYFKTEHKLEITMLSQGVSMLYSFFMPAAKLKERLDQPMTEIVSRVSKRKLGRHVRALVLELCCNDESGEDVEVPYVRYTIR
Protocol: 2 μl rabbit E1 +12 μl of 1× reaction buffer are mixed together with the test compound followed by addition of 1 μl of ^32P Ub is added for 10 minutes at room temperature followed by resolution by SDS-PAGE under non-reducing conditions to maintain thiol-ester linkages and exposure as above.

GST-MDM2 = biological target: T3, GST-MDM2 (Homo sapiens, UniProt Q00987); experiment: Standard MDM2 in vitro ubiquitination assay (E1+E2+E3), SDS-PAGE gel; format: biochemical; conditions: FIG. 2A, 2F
T3 construct: made in house
Protocol: a. “Standard MDM2 in vitro Ubiguitination Assay” (E1+E2+E3 Assay)
as §1, with “To carry out the reaction, a pre-made cocktail of Rabbit E1 (Calbiochem #6620700)/UbcH5B/^32P Ub cocktail (1 μl/0.5 μl/1 μl) is added followed by 15 minutes shaking at 30° C.” left out
• 500 mM Tris (pH 7.5) • 2 mM ATP • 5 mM MgCl2 • 1 mM DTT • 10 mM creatine phosphate (Sigma P4635) (45 mg/10 ml). **10× PCK • Sigma C7886, 1000 U, reconstitute in 200 μl 10 mM Tris pH 8.0.

[1] = biological target: T4, p53 pre-bound to GST-MDM2 (Homo sapiens, UniProt Q00987); experiment: In vitro p53 ubiquitination assay; format: biochemical; conditions: cellular p53 pre-bound to GST-MDM2, FIG. 2G
T4 construct: made in house; host or cells: GST-MDM2: bacteria; p53: SaOS-p53 inducible cells
Protocol: d. In Vitro R53 Ubiguitination Assay
p53 protein from SaOS-p53 inducible cell lysate was purified from cells using GST-MDM2 (5 pmol) pre-bound to GS beads. Samples were then incubated with test compounds as above. Subsequently 2 μl rabbit E1, 1 μl UbcH5b, and 10 μg of ubiquitin were added. After reaction for 15 min at 23° C., samples were subject to SDS-PAGE under reducing conditions, transferred to nitrocellulose membranes and immunoblotted with anti-p53 (DO-1) followed by ECL using standard techniques.

[2] = test system: Normal human fibroblast MRC-5; experiment: Cell based assay for accumulation of MDM2 and p53 (immunoblot); conditions: MRC-5 cells; for MDM2 level / p53 level: 50 μM, 8 hours
Protocol: Methods: Normal human fibroblast MRC-5 were chosen to determine whether the compounds from the high throughput screening can inhibit the E3 activity of Mdm2, i.e. stabilizing MDM2 and p53 in vivo. After being seeded in 12-well tissue culture cluster overnight, the cells were treated with 50 μM of the compounds for 8 hours. They were harvested with trypsin-EDTA, washed with PBS, and lysed with RIPA buffer. Following removal of insoluble pellet by centrifugation for 20 minutes at 10000 rpm, the lysate was separated on 4-20% gradient SDS-polyacrylamide gel and transferred onto nitrocellulose membrane. The membrane was then blotted with anti-p53 antibody (DO-1), anti-MDM2 antibodies (Ab-1 and Ab-2), anti-p27 (Santa Cruz), anti-Nedd4, and anti-p21Waf1 antibody. After extensive washing with PBS containing 0.5% Triton X-100, it was incubated with HRP-labeled donkey anti-mouse antibody and visualized using enhanced chemiluminescence.

[3] = test system: E1A-transformed RPE cells; experiment: Apoptosis in E1A-transformed RPE cells; format: cell-based, human; conditions: FIG. 4 left
Description: Cell-based assays include model systems where primary human epithelial cells (“normal cells”) are compared to the same cells expressing the adenovirus E1A oncogene (“transformed cells”). Activation of p53 was not toxic to normal cells, but activation of p53 in transformed cells induces p53-mediated apoptosis. High concentrations of wild type (wt) p53 protein can induce apoptosis in a variety of different tumor cells. Potential inhibitors of MDM2 would regulate the stability and function of p53 and MDM2. Preferably the assays measure number of cells undergoing apoptosis due to MDM2 induced p53 degradation in tumor cells in the presence or absence of candidate compounds as compared to normal cells in the presence or absence of candidate compounds. An increase in the number of these cells undergoing apoptosis in the presence of candidate compounds in tumor cells, as compared to normal untreated cells is indicative of a potential anti-tumor compound. […]
Apoptosis and cell death were determined by FACS analysis of sub-G1 nuclei or counting trypan blue-positive cells under microscope. Caspase activity was measured using fluorogenic substrate Ac-DEVD-AFC and CytoFluor multi-well plate reader (PerSeptive Biosystems). […]

T3 sequence (Q00987 whole entry): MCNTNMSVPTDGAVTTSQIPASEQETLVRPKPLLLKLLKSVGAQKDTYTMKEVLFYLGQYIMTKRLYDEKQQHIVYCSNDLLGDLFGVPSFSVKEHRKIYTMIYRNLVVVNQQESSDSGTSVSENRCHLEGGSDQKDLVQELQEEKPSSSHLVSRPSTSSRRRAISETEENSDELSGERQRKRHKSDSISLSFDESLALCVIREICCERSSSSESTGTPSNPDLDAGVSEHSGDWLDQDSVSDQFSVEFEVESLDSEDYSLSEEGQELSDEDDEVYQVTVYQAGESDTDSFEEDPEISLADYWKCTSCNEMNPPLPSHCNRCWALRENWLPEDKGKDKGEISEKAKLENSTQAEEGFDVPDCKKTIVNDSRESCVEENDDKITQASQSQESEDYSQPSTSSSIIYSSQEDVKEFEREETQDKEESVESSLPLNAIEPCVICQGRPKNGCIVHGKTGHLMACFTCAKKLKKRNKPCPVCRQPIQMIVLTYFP
T4 sequence (Q00987 whole entry): as above
T4 sequence (P04637 whole entry partner): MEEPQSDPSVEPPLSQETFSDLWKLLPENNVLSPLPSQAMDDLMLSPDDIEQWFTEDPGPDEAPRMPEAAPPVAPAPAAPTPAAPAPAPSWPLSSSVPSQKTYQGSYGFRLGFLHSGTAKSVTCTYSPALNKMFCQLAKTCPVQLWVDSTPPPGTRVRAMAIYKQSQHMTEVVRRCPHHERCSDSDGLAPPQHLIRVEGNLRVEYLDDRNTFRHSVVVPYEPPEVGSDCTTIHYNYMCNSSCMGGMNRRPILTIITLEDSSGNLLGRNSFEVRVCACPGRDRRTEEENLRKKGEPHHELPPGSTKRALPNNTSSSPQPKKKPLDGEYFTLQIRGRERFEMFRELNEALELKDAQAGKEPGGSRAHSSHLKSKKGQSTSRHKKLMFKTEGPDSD

Row | selectivity of inhibition of MDM2 versus unrelated E3 ligase Nedd4 (Nedd4) | inhibition of thiol-ester linkage of ubiquitin with E1 (rabbit E1) | inhibition of MDM2 E3 ligase (auto-ubiquitination) (GST-MDM2) | Structure (SMILES) | inhibition of p53 ubiquitination by MDM2 [1] | MDM2 level [2] | p53 level [2] | p21 level ([2]; FIG. 3C) | apoptosis [3]
1 | inhibits all E3s | block the activity of the E1 enzyme |  | O=c1nc2n(-c3ccc(Cl)cc3)c3ccc([N+](=O)[O-])cc3cc-2c(=O)[nH]1 [Compound 97H10, 10-(4-chloro-phenyl)-7-nitro-10H-pyrimido[4,5-b]quinoline-2,4-dione] |  |  |  |  | 
2 |  |  | inhibition of MDM2 auto-ubiquitination | O=c1nc2n(-c3ccc(Cl)cc3)c3ccc([N+](=O)[O-])cc3cc-2c(=O)[nH]1 [Compound 98D07, 10-(-4-chloro-phenyl)-7-nitro-10H-pyrimido[4,5-b]quinoline-2,4-dione] | significant dose-dependent inhibition of p53 ubiquitination | specifically increase MDM2 and p53 | specifically increase MDM2 and p53 |  | 
3 |  |  | inhibition of MDM2 auto-ubiquitination | Cc1ccc(-n2c3nc(=O)[nH]c(=O)c-3cc3cc([N+](=O)[O-])ccc32)cc1 [Compound 98E07, 10-(-4-methyl-phenyl)-7-nitro-10H-pyrimido[4,5-b]quinoline-2,4-dione] |  | specifically increase MDM2 and p53 | specifically increase MDM2 and p53 |  | 
4 |  |  |  | CCCC[C@@H](C=O)NC(=O)[C@H](CC(C)C)NC(=O)[C@H](CC(C)C)NC(C)=O [LLNL, reference compound] (Ac-Leu-Leu-[Nle]-aldehyde) |  | accumulated MDM2, p53, and p21 | accumulated MDM2, p53, and p21 | accumulated MDM2, p53, and p21 | markedly increased apoptosis
